# Assay: In vitro Caco-2 cell monolayer permeability
# Assay type: in vitro ADME
# Conditions: human, equivalent to 50 µg/mL PMX, n = 7, read-out: Apparent permeability (Papp)
# Protocol: To compare the in vitro apparent permeability (Papp) of PMX, PMX/DL(1:1), PMX/DL(1:2), PMX/DL(1:1)-CD, and PMX/DL(1:2)-CD across a Caco-2 (ATCC® HTB-37™; American Type Culture Collection, Manassas, VA, USA) cell monolayer, Caco-2 cells were seeded onto 24-well Transwell® filter inserts in Dulbecco's modified Eagle's medium (DMEM) containing 10% (v/v) fetal bovine serum and 1% penicillin/streptomycin, at a density of 1 × 10^5 cells/well, cultured for 14–16 days to form a confluent monolayer with the transepithelial electrical resistance (TEER) >350 Ω·cm^2. After the media in the apical and basolateral compartments were replaced with Hank’s balanced salt solution (HBSS) and stabilized for 20 min at 37 °C, 100 µL of the drug solution diluted with HBSS (equivalent to 50 µg/mL PMX) and 600 µL of HBSS were loaded into the apical and basolateral compartments in each well, respectively. During incubation at 37 °C, 100 µL of sample solution was withdrawn from each basolateral compartment, and the volume was replaced using fresh HBSS at 0.5, 1, 2, 3, 4, and 5 h. After passing through a polyvinylidene fluoride (PVDF) membrane filter (pore size: 0.45 µm), the concentration of PMX in each sample solution was measured using the HPLC system at 254 nm, with a Luna C18 column (4.6 × 250 mm, 5 µm, 100 Å) at 25 °C. […]
structure (smiles),measurement,value
"Nc1nc2[nH]cc(CCc3ccc(C(=O)N[C@@H](CCC(=O)O)C(=O)O)cc3)c2c(=O)[nH]1 [PMX, Pemetrexed]","Papp at 5 h, 50 µg/mL",1.2 ± 0.349 ×10⁻⁶ cm/s
